Drawing on ChEMBL document CHEMBL1134145, “Carbohydrate recognition of gramicidin S analogues in aqueous medium” (Bioorg Med Chem Lett, 2001), this text covers Kd for four molecules.

As usually defined, the Kd is the equilibrium constant for the complex coming apart.

Each structure is given as a SMILES string.

The nature of data set [1]: Dissociation constant of compound with Fructose was determined. The class given is physicochemical.
The nature of data set [2]: Dissociation constant of compound with Lactulose was determined. The class given is physicochemical.

As for `NCCC[C@@H]1NC(=O)[C@H](CC(N)=O)NC(=O)[C@@H]2CCCN2C(=O)[C@@H](Cc2ccccc2)NC(=O)[C@H](Cc2c[nH]c3ccccc23)NC(=O)[C@H](CCCN)NC(=O)[C@H](CC(N)=O)NC(=O)[C@@H]2CCCN2C(=O)[C@@H](Cc2ccccc2)NC(=O)[C@H](Cc2c[nH]c3ccccc23)NC1=O`, the Kd turned out to be 1500 µM in data set [1] and 200 µM in data set [2].

`NCCC[C@@H]1NC(=O)[C@H](CC(=O)O)NC(=O)[C@@H]2CCCN2C(=O)[C@@H](Cc2ccccc2)NC(=O)[C@H](Cc2c[nH]c3ccccc23)NC(=O)[C@H](CCCN)NC(=O)[C@H](CC(N)=O)NC(=O)[C@@H]2CCCN2C(=O)[C@@H](Cc2ccccc2)NC(=O)[C@H](Cc2c[nH]c3ccccc23)NC1=O`: the Kd in data set [1] is 4700 µM; in data set [2], 180 µM.

As to `NCCC[C@@H]1NC(=O)[C@H](CC(=O)O)NC(=O)[C@@H]2CCCN2C(=O)[C@@H](Cc2ccccc2)NC(=O)[C@H](Cc2c[nH]c3ccccc23)NC(=O)[C@H](CCCN)NC(=O)[C@H](CC(=O)O)NC(=O)[C@@H]2CCCN2C(=O)[C@@H](Cc2ccccc2)NC(=O)[C@H](Cc2c[nH]c3ccccc23)NC1=O`, the Kd in data set [1] is 1500 µM.

Regarding `NCCC[C@@H]1NC(=O)[C@H](CCC(N)=O)NC(=O)[C@@H]2CCCN2C(=O)[C@@H](Cc2ccccc2)NC(=O)[C@H](Cc2c[nH]c3ccccc23)NC(=O)[C@H](CCCN)NC(=O)[C@H](CCC(N)=O)NC(=O)[C@@H]2CCCN2C(=O)[C@@H](Cc2ccccc2)NC(=O)[C@H](Cc2c[nH]c3ccccc23)NC1=O`, in data set [2], binding was characterised by a dissociation constant (Kd) of 30 µM. This lies in the double-digit micromolar range.
